Source: ChEMBL document CHEMBL4043180, “Biological evaluation of 2-pyrazolinyl-1-carbothioamide derivatives against HCT116 human colorectal cancer cell lines and elucidation on QSAR and molecular binding modes” (Bioorg Med Chem, 2017)
Active and inactive are the calls of the source. The calls are words filed in the database; no cut-off is given here.

How the values were obtained:
[1] = biological target: Bcr/Abl fusion protein (Homo sapiens) (UniProt P00519+P11274); test: Inhibition of BCR/ABL Tyr245 phosphorylation in human K562 cells at 20 uM incubated for 6 to 24 hrs; type: cell-based
Sequence of Bcr/Abl fusion protein (Homo sapiens) (P00519 whole entry, looked up, the tested form may be a part): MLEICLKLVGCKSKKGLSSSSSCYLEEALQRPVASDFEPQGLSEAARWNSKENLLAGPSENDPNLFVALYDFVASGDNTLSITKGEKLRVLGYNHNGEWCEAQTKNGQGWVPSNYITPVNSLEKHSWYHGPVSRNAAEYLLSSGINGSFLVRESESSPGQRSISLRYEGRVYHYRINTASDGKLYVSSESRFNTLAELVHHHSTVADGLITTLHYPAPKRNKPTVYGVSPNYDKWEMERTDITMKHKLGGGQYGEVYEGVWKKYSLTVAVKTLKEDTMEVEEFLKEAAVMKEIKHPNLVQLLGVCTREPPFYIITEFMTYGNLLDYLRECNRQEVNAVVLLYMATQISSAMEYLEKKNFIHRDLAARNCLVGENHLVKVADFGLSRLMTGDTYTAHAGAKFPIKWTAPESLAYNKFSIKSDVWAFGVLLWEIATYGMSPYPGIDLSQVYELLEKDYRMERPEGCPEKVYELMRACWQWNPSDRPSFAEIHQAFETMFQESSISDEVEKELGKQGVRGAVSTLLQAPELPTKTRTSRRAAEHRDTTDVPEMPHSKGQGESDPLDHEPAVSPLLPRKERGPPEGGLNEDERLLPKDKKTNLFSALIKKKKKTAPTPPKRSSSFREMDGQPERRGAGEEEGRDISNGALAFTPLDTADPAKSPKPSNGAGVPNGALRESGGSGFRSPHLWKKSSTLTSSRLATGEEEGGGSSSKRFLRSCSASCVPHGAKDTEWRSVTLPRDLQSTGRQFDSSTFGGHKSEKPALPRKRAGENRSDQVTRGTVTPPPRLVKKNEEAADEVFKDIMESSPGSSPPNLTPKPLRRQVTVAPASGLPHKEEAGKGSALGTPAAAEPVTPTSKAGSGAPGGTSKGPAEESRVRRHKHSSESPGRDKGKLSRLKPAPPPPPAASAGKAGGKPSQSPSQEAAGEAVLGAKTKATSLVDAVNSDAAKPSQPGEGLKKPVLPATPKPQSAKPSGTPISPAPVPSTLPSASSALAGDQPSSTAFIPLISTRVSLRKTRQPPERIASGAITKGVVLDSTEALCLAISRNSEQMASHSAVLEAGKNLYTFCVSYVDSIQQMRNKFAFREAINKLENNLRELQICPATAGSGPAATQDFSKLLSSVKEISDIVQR
Sequence of Bcr/Abl fusion protein (Homo sapiens) (P11274 whole entry, looked up, the tested form may be a part): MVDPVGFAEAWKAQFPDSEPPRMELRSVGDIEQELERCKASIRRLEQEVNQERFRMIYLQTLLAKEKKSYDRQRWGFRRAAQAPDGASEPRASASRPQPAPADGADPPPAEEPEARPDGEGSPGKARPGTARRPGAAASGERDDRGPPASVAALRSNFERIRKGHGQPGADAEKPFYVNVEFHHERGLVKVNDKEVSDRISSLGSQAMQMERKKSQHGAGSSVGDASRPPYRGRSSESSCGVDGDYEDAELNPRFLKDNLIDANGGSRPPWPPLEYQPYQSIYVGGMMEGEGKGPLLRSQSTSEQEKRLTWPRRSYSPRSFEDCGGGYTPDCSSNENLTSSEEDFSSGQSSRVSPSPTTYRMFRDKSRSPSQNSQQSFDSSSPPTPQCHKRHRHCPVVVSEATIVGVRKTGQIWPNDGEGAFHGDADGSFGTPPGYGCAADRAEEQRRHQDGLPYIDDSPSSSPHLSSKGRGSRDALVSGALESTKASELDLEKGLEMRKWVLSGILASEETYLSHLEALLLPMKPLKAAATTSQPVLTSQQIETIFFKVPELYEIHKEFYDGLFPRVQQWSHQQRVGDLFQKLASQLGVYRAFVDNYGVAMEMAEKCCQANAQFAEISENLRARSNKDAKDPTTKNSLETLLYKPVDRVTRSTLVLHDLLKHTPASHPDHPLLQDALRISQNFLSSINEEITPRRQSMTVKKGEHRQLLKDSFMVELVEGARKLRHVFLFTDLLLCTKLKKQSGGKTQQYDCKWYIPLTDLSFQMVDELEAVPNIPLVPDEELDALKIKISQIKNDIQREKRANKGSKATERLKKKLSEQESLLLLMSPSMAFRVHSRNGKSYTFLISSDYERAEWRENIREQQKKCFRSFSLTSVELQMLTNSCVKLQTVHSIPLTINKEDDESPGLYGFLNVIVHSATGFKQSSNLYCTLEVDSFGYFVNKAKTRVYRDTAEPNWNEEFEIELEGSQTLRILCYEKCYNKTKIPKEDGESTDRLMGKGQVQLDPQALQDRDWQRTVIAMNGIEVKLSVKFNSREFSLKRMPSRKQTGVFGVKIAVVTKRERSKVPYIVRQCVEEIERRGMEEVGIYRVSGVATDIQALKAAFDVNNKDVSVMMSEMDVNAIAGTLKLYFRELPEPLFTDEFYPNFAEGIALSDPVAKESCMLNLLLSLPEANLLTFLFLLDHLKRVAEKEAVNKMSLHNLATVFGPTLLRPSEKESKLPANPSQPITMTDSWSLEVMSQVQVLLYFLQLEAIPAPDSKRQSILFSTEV

[2] = biological target: Tyrosine-protein kinase ABL1 (Homo sapiens) (UniProt P00519); test: Inhibition of Abl1 (unknown origin) at 10 uM
Sequence of Tyrosine-protein kinase ABL1 (Homo sapiens) (P00519 whole entry): as the sequence (P00519 whole entry, looked up, the tested form may be a part) above

inhibition [1]: Active
inhibition [2]: 93%
Structure (SMILES): COc1cc(O)c(C2=NN(C(=S)Nc3cc(OC)c(OC)c(OC)c3)C(c3cccc4ccccc34)C2)cc1OC (configuration not stated)
